Measured values reported in patent publication US20070037752A1, “Novel alanyl-amino peptidase inhibitors for functionally influencing different cells and treating immunological, inflammatory, neuronal, and other diseases” (priority 2003, published 2007).
pIC50: −log10 of the molar value. Non-standard residues stand in square brackets, D forms with d. Residues, ends and D or L forms follow the SMILES beside them. *: point of attachment. OBn = c1ccc(CO*)cc1

Target: alanyl aminopeptidases (APN) (Homo sapiens, UniProt P15144)
Sequence (P15144 whole entry, species assumed): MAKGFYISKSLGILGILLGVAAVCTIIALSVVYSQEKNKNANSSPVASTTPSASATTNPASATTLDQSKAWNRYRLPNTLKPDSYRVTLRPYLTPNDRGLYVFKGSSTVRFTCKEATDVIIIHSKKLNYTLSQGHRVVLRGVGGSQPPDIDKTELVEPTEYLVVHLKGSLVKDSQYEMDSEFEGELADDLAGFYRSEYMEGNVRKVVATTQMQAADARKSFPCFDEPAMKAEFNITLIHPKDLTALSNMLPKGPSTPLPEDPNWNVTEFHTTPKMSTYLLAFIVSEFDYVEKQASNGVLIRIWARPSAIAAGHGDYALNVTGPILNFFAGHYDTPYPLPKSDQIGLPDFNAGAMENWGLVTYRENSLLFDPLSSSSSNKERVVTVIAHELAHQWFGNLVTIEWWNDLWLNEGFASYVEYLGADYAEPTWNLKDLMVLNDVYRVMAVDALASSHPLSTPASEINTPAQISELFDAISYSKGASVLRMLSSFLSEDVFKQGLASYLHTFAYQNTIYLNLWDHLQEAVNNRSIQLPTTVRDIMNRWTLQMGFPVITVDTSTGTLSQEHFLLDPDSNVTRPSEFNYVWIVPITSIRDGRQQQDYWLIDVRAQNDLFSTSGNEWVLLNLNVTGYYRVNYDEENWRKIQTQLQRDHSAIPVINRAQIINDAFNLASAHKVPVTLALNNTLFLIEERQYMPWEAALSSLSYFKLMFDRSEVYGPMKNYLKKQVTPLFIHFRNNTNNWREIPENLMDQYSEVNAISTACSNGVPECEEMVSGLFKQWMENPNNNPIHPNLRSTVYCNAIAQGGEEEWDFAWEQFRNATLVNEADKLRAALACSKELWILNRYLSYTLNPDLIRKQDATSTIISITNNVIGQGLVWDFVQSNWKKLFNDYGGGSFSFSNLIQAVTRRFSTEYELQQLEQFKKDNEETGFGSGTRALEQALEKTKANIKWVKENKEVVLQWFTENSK
Assay: Inhibition of alanyl aminopeptidase enzymatic activity, fluorogenic substrate (Ala)2-rhodamine 110
Format: biochemical
Settings: Table 12; read-out: IC50APN
Method: The inhibition characteristics measured are referred to as IC-50 values or ID50 values (the latter marked with “*”) for said enzyme. The enzymatic activity was determined by means of the fluorogenic substrate/product (Ala)2-rhodamine 110.

| pIC50 | Compound |
| --- | --- |
| 5.20 | O=C(CCOC(c1ccccc1)c1ccc(Br)cc1)NO (stereo not shown) [A12.008] |
| 5.19 | O=C(COc1ccc(Br)cc1)NO [A12.009] |
| 5.17 | CCc1cccc(CC)c1NC(=S)N/N=C1\C(=O)N(CN2CC(C)CC(C)C2)c2ccccc21 (stereo not shown) [A12.010] |
| 5.14 | NCCCC[C@@H](N)C(=O)N[C@H](Cc1ccccc1)C(=O)N[C@H](Cc1ccc(O)cc1)C(=O)O [A12.011] (H-[dK]-[dF]-[dY]-OH) |
| 5.12 | CCOc1ccc(CC(=O)NO)cc1 [A12.013] |
| 5.12 | O=C(ON1C(=O)CCC1=O)C1CCC(=O)N1C(=O)OCc1ccccc1 (stereo not shown) [A12.015] |
| 5.07 | CCC(C)C(NC(=O)C(N)CC(=O)OCc1ccccc1)C(=O)NC(Cc1ccccc1)C(=O)OC (stereo not drawn) [A12.016] (H-Asp(OBn)-Ile-Phe-OMe; configuration not given here) |
| 5.07 | C/C(=N/O)c1ccc2c(c1)OCCOCCOc1cc(/C(C)=N\O)ccc1OCCOCCO2 [A12.017] |
| 4.96 | Cc1ccc(C(=O)N/C(=C\c2ccco2)C(=O)N2CC3CC(C2)c2cccc(=O)n2C3)cc1 (stereo not shown) [A12.019] |
| 4.94 | O=C(CS(=O)(=O)c1ccc(Cl)cc1)NO [A12.021] |
| 4.62 | CCCOC(=O)c1cc(-c2ccc(/C=C3\C(=O)N(CCCO)C(=O)C(C#N)=C3C)o2)ccc1Cl [A12.022] |
| 4.93 | CN(C)CCCN1CCN(c2nc(N(C)CC(=O)O)c3ncn(Cc4ccc([N+](=O)[O-])cc4)c3n2)CC1 [A12.023] |
| 4.92 | O=C(O)SCCC1NC(=S)N(c2ccccc2)C1=O (stereo not shown) [A12.024] |
| 4.88 | CC(C)COc1ccc(C(=O)N/C(=C\c2ccco2)C(=O)N2CCOCC2)cc1 [A12.025] |
| 4.87 | COc1ccc(Cl)cc1NC(O)CCN1C(=O)C2C3C=CC(C3)C2C1O (stereo not shown) [A12.026] |
| 4.85 | CSCCC1NC(=S)N(Cc2ccccc2)C1=O (stereo not shown) [A12.027] |
| 4.85 | O=C(CCCCCN1C(=O)c2cccc3cccc(c23)C1=O)NO [A12.028] |
| 4.85 | Cc1ccc(C(OCCC(=O)NO)c2ccc(C)cc2)cc1 [A12.029] |
| 4.80 | CC1=C(C#N)C(=O)N(CCCO)C(=O)/C1=C\c1ccc(-c2ccc(Br)cc2)o1 [A12.030] |
| 4.77 | O=C(O)C1N=NC(c2ccc(F)cc2)=CN1O (stereo not shown) [A12.031] |
| 4.75 | Cc1ccc(NC(=O)/C(=C\c2ccco2)NC(=O)c2ccccc2Cl)cc1 [A12.033] |
| 4.74 | CC(=O)c1cccc(-c2ccc(/C=C3/C(=O)N(CCCO)C(=O)C(C#N)=C3C)o2)c1 [A12.034] |
| 4.72 | O=C(N/C(=C\c1ccco1)C(=O)N1CCCC(CO)C1)c1ccccc1 (stereo not shown) [A12.035] |
| 4.72 | CCOC(=O)C(NC(=O)c1ccccc1)(Nc1ccc(OC)cc1OC)C(F)(F)F (stereo not shown) [A12.036] |

| pIC50 | Compound |
| --- | --- |
| 4.68 | COc1ccc(C[C@@H](N)C(=O)N[C@H]2[C@H](O)[C@H](n3cnc4c(N(C)C)ncnc43)O[C@@H]2CO)cc1 [A12.037] |
| 4.68 | O=C(N/C(=C\c1ccco1)C(=O)N1CCC(O)CC1)c1ccccc1 [A12.038] |
| 4.67 | NCC(O)CNCCc1ccccc1 (stereo not shown) [A12.039] |
| 4.66 | CCOC(=O)C(NC(=O)c1cccc(Cl)c1)(Nc1ccc(OC)cc1OC)C(F)(F)F (stereo not shown) [A12.040] |
| 4.66 | O=C(CCOC(c1ccc(F)cc1)c1ccc(F)cc1)NO [A12.041] |
| 4.64 | CN(C)CCCN1CCN(c2nc(N(C)CC(=O)O)c3ncn(Cc4ccc(C(F)(F)F)cc4)c3n2)CC1 [A12.042] |
| 4.60 | CC(CCc1ccccc1)C(=O)NO (stereo not shown) [A12.044] |
| 4.57 | O=C(NC(Sc1ccncn1)C(=O)c1ccccc1)c1ccccc1 (stereo not shown) [A12.045] |
| 4.55 | N#C/C(=C\c1ccc(N2Cc3ccccc3C2)cc1)C(=O)NCC1CCCO1 (stereo not shown) [A12.047] |
| 4.54 | CC1=C(C#N)C(=O)N(CC(C)O)C(=O)/C1=C/c1ccc(-c2cccc(Cl)c2C)o1 (stereo not shown) [A12.048] |
| 4.52 | CCOC(=O)C(NC(=O)c1ccccc1)(N1CCC(Cc2ccccc2)CC1)C(F)(F)F (stereo not shown) [A12.049] |
| 4.49 | Cc1ccc(C(=O)N/C(=C/c2ccco2)C(=O)N(C)C)cc1 [A12.052] |
| 4.48 | COc1ccc(C(OCCC(=O)NO)c2ccccc2)cc1 (stereo not shown) [A12.053] |
| 4.47 | Cc1ccccc1NC(=O)C1C(c2cccs2)C(C#N)=C(SCC(=O)Nc2ccc(Br)cc2)NC1(C)O (stereo not shown) [A12.054] |
| 4.47 | CC(C)C1N=C(Cc2cccnc2)N(CCCN2CCCC2=O)C1C(=O)NCc1ccccc1 (stereo not shown) [A12.055] |
| 4.36 | COC(=O)C(NC(=O)c1ccccc1)(Nc1sc2c(c1C#N)CCC(C(C)(C)C)C2)C(F)(F)F (stereo not shown) [A12.056] |
| 4.33 | CC1=C(C#N)C(=O)N(CC(C)O)C(=O)/C1=C/c1ccc(-c2ccc(Br)cc2)o1 (stereo not shown) [A12.058] |
| 4.32 | CSCCC(Nc1ncnc2c1oc1ccccc12)C(=O)O (stereo not shown) [A12.060] |
| 4.29 | CSCCC(NC(=O)c1ccc(C(F)(F)F)cc1)C(=O)NO (stereo not shown) [A12.061] |
| 4.26 | Cc1ccc(/C=C(\NC(=O)c2ccccc2)C(=O)NCCN2CCOCC2)o1 [A12.063] |
| 4.21 | O=C1Nc2cc(C(=O)N3CCN(c4ccccc4)CC3)ccc2NC1CSCc1ccccc1F (stereo not shown) [A12.065] |
| 4.09 | N#CCCCCCCCCC(=O)NO [A12.069] |
| 4.02 | O=C(OCCN1CCCCC1)C1c2ccccc2Oc2ccccc21 [A12.070] |
| 3.93 | COc1c(OCC(O)C(C)(C)O)ccc2c1N=C1OC=CC1C2OC (stereo not shown) [A12.072] |

Same assay, conditions: Table 13; read-out: IC50APN

| pIC50 | Compound |
| --- | --- |
| 5.92 | CC1=C(C#N)C(=O)N(CCO)C(=O)/C1=C\c1ccc(-c2cc(Cl)ccc2Cl)o1 [A13.001] |
| 5.57 | CCOC(=O)c1ccc(-c2ccc(/C=C3\C(=O)N(CCO)C(=O)C(C#N)=C3C)o2)cc1 [A13.002] |
| 5.30 | COC(=O)c1ccc(-c2ccc(/C=C3\C(=O)N(CCCO)C(=O)C(C#N)=C3C)o2)cc1 [A13.003] |
| 5.20 | COC(=O)c1cccc(-c2ccc(/C=C3\C(=O)N(CCO)C(=O)C(C#N)=C3C)o2)c1 [A13.004] |
| 4.98 | Cc1ccc(/C=N/NC(=O)c2cccc(Cl)c2)o1 [A13.005] |
| 4.82 | COC(=O)c1cc(-c2ccc(/C=C3\C(=O)N(CCCO)C(=O)C(C#N)=C3C)o2)ccc1Cl [A13.006] |
| 4.80 | CC1=C(C#N)C(=O)N(CCCO)C(=O)/C1=C\c1ccc(-c2ccc(Br)cc2)o1 [A13.007] |
| 4.74 | C=CCOC(=O)c1cc(-c2ccc(/C=C3/C(=O)N(CCCO)C(=O)C(C#N)=C3C)o2)ccc1Cl [A13.008] |
| 4.74 | CC(=O)c1cccc(-c2ccc(/C=C3/C(=O)N(CCCO)C(=O)C(C#N)=C3C)o2)c1 [A13.009] |
| 4.70 | CCCOc1[nH]c(/N=C/c2ccccc2)c(C#N)c1C#N [A13.010] |
| 4.68 | CCCN1C(=O)C(C#N)=C(C)/C(=C\c2ccc(-c3cccc(Cl)c3C)o2)C1=O [A13.011] |
| 4.67 | CC1=C(C#N)C(O)=NC(=O)/C1=C/c1ccc(-c2ccc(Cl)c(C(=O)OC(C)C)c2)o1 [A13.012] |
| 4.55 | N#C/C(=C\c1ccc(N2Cc3ccccc3C2)cc1)C(=O)NCC1CCCO1 (stereo not shown) [A13.013] |
| 4.54 | CC1=C(C#N)C(=O)N(CC(C)O)C(=O)/C1=C/c1ccc(-c2cccc(Cl)c2C)o1 (stereo not shown) [A13.014] |
| 4.53 | C=CCN1C(=O)C(C#N)=C(C)/C(=C\c2ccc(-c3cc(C)c(C)cc3[N+](=O)[O-])o2)C1=O [A13.015] |
| 4.43 | CCCOC(=O)c1cc(-c2ccc(/C=C3\C(=O)NC(=O)C(C#N)=C3C)o2)ccc1Cl [A13.016] |
